{
  "source": "PubChem BioAssay (NCI)",
  "assay_in_all_cases": "NCI-60 cell line screen, 384-well format",
  "key": {"TK-10 renal": {"system": "TK-10 renal"}, "HCT-15 colon": {"system": "HCT-15 colon"}, "DU-145 prostate": {"system": "DU-145 prostate"}, "MALME-3M melanoma": {"system": "MALME-3M melanoma"}, "KM12 colon": {"system": "KM12 colon"}, "HT29 colon": {"system": "HT29 colon"}, "786-0 renal": {"system": "786-0 renal"}, "SNB-19 CNS": {"system": "SNB-19 CNS"}, "MDA-MB-468 breast": {"system": "MDA-MB-468 breast"}, "SN12C renal": {"system": "SN12C renal"}, "HOP-62 NSCLC": {"system": "HOP-62 NSCLC"}, "SF-539 CNS": {"system": "SF-539 CNS"}, "RXF 393 renal": {"system": "RXF 393 renal"}, "COLO 205 colon": {"system": "COLO 205 colon"}, "SK-OV-3 ovarian": {"system": "SK-OV-3 ovarian"}, "LOX IMVI melanoma": {"system": "LOX IMVI melanoma"}, "A498 renal": {"system": "A498 renal"}, "UACC-62 melanoma": {"system": "UACC-62 melanoma"}, "HCT-116 colon": {"system": "HCT-116 colon"}, "MCF7 breast": {"system": "MCF7 breast"}, "IGROV1 ovarian": {"system": "IGROV1 ovarian"}, "SK-MEL-5 melanoma": {"system": "SK-MEL-5 melanoma"}, "M14 melanoma": {"system": "M14 melanoma"}, "NCI/ADR-RES ovarian": {"system": "NCI/ADR-RES ovarian"}, "MDA-MB-435 melanoma": {"system": "MDA-MB-435 melanoma"}, "CAKI-1 renal": {"system": "CAKI-1 renal"}, "A549 NSCLC": {"system": "A549 NSCLC"}, "OVCAR-3 ovarian": {"system": "OVCAR-3 ovarian"}},
  "note": "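GI50 is the concentration that inhibits growth by half. At the TGI there is no net growth.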",
  "data": [
    {"smiles": "C=C(c1ccc(N(C)C)cc1)c1ccc(N(C)C)cc1", "values": [
      {"measurement": "GI50", "setting": "TK-10 renal", "result": 2250, "unit": "nM"},
      {"measurement": "TGI", "setting": "TK-10 renal", "result": 9090, "unit": "nM"},
      {"measurement": "GI50", "setting": "HCT-15 colon", "result": 373, "unit": "nM"},
      {"measurement": "TGI", "setting": "HCT-15 colon", "result": 10300, "unit": "nM"},
      {"measurement": "GI50", "setting": "DU-145 prostate", "result": 2660, "unit": "nM"},
      {"measurement": "TGI", "setting": "DU-145 prostate", "result": 8380, "unit": "nM"},
      {"measurement": "GI50", "setting": "MALME-3M melanoma", "result": 1650, "unit": "nM"},
      {"measurement": "TGI", "setting": "MALME-3M melanoma", "result": 6030, "unit": "nM"},
      {"measurement": "GI50", "setting": "KM12 colon", "result": 1940, "unit": "nM"},
      {"measurement": "TGI", "setting": "KM12 colon", "result": 55400, "unit": "nM"},
      {"measurement": "GI50", "setting": "HT29 colon", "result": 1870, "unit": "nM"},
      {"measurement": "TGI", "setting": "HT29 colon", "result": 4790, "unit": "nM"},
      {"measurement": "GI50", "setting": "786-0 renal", "result": 2510, "unit": "nM"},
      {"measurement": "TGI", "setting": "786-0 renal", "result": 8960, "unit": "nM"},
      {"measurement": "GI50", "setting": "SNB-19 CNS", "result": 2920, "unit": "nM"},
      {"measurement": "TGI", "setting": "SNB-19 CNS", "result": 20500, "unit": "nM"},
      {"measurement": "GI50", "setting": "MDA-MB-468 breast", "result": 142, "unit": "nM"},
      {"measurement": "TGI", "setting": "MDA-MB-468 breast", "result": 822, "unit": "nM"},
      {"measurement": "GI50", "setting": "SN12C renal", "result": 3690, "unit": "nM"},
      {"measurement": "TGI", "setting": "SN12C renal", "result": 72600, "unit": "nM"},
      {"measurement": "GI50", "setting": "HOP-62 NSCLC", "result": 2200, "unit": "nM"},
      {"measurement": "TGI", "setting": "HOP-62 NSCLC", "result": 7980, "unit": "nM"},
      {"measurement": "GI50", "setting": "SF-539 CNS", "result": 1790, "unit": "nM"},
      {"measurement": "TGI", "setting": "SF-539 CNS", "result": 4120, "unit": "nM"},
      {"measurement": "GI50", "setting": "RXF 393 renal", "result": 1330, "unit": "nM"},
      {"measurement": "TGI", "setting": "RXF 393 renal", "result": 3480, "unit": "nM"},
      {"measurement": "GI50", "setting": "COLO 205 colon", "result": 2780, "unit": "nM"},
      {"measurement": "TGI", "setting": "COLO 205 colon", "result": 7770, "unit": "nM"},
      {"measurement": "GI50", "setting": "SK-OV-3 ovarian", "result": 2420, "unit": "nM"},
      {"measurement": "TGI", "setting": "SK-OV-3 ovarian", "result": 15100, "unit": "nM"},
      {"measurement": "GI50", "setting": "LOX IMVI melanoma", "result": 1910, "unit": "nM"},
      {"measurement": "TGI", "setting": "LOX IMVI melanoma", "result": 21100, "unit": "nM"},
      {"measurement": "GI50", "setting": "A498 renal", "result": 2100, "unit": "nM"},
      {"measurement": "TGI", "setting": "A498 renal", "result": 7730, "unit": "nM"},
      {"measurement": "GI50", "setting": "UACC-62 melanoma", "result": 1520, "unit": "nM"},
      {"measurement": "TGI", "setting": "UACC-62 melanoma", "result": 7920, "unit": "nM"},
      {"measurement": "GI50", "setting": "HCT-116 colon", "result": 2450, "unit": "nM"},
      {"measurement": "TGI", "setting": "HCT-116 colon", "result": 13100, "unit": "nM"},
      {"measurement": "GI50", "setting": "MCF7 breast", "result": 2160, "unit": "nM"},
      {"measurement": "TGI", "setting": "MCF7 breast", "result": 8520, "unit": "nM"},
      {"measurement": "GI50", "setting": "IGROV1 ovarian", "result": 2360, "unit": "nM"},
      {"measurement": "TGI", "setting": "IGROV1 ovarian", "result": 9030, "unit": "nM"},
      {"measurement": "GI50", "setting": "SK-MEL-5 melanoma", "result": 1360, "unit": "nM"},
      {"measurement": "TGI", "setting": "SK-MEL-5 melanoma", "result": 3400, "unit": "nM"},
      {"measurement": "GI50", "setting": "M14 melanoma", "result": 1390, "unit": "nM"},
      {"measurement": "TGI", "setting": "M14 melanoma", "result": 3160, "unit": "nM"},
      {"measurement": "GI50", "setting": "NCI/ADR-RES ovarian", "result": 1430, "unit": "nM"},
      {"measurement": "TGI", "setting": "NCI/ADR-RES ovarian", "result": 3120, "unit": "nM"},
      {"measurement": "GI50", "setting": "MDA-MB-435 melanoma", "result": 280, "unit": "nM"},
      {"measurement": "TGI", "setting": "MDA-MB-435 melanoma", "result": 1060, "unit": "nM"},
      {"measurement": "GI50", "setting": "CAKI-1 renal", "result": 2570, "unit": "nM"},
      {"measurement": "TGI", "setting": "CAKI-1 renal", "result": 22100, "unit": "nM"},
      {"measurement": "GI50", "setting": "A549 NSCLC", "result": 4110, "unit": "nM"},
      {"measurement": "TGI", "setting": "A549 NSCLC", "result": 28900, "unit": "nM"},
      {"measurement": "GI50", "setting": "OVCAR-3 ovarian", "result": 1410, "unit": "nM"}
    ]}
  ]
}
